Laboratory results published in patent publication US4761405A, “Antagonists of specific excitatory amino acid neurotransmitter receptors having increased potency” (priority 1987, dated 1988).
“And” between values parts separate entries of the source, which are not always exact repeats. Equal values may be shown once. “Also recorded” adds a separate entry of the source. Read-outs that look alike come from different tables or passages of the source.

What was measured:
[1] = tested on: KA receptors (rat forebrain membranes); assay: In vitro receptor binding: inhibition of specific [3H]KA binding; details: for Percent inhibition of specific ligand binding, [3H]KA: 50 μM compound, 2 nM ligand, pH 7.4, 90 min, 2° C., mean ± S.E.M. of three determinations
Method: (§1) The potency of the compound described in example IV to inhibit the specific binding of various EAA ligands to rat forebrain membranes was examined using standard in vitro binding techniques. Specifically, example IV was evaluated for potency to inhibit the specific binding of [^3 H]kainic acid ([^3 H]KA),[^3 H]RS-α-amino-3-hydroxy-5-methyl-4-isoxazole propionic acid([^3 H]AMPA) and [^3 H]3-(2-carboxypiperazin-4-yl) propyl-1-phosphonic acid([^3 H]CPP) to KA, QUIS and NMDA receptors, respectively.
(§2) Methods were as follows: rat forebrain membranes were prepared as described by Enna and Synder [Mol. Pharmacology, 13, 422-453 (1977)] and the "buffy coat" preparation was washed three additional times by centrifugation (45,000 g; 10 min; 4° C.) with intermittent resuspensions (20 vol; w/v) in fresh buffer (Tris HCl; 0.05M; pH 7.4; 23° C.). Following the final wash, pellets were stored frozen (-20° C.) until used.
(§3) On the day of assay, pellets were thawed to room temperature, resuspended in buffer (Tris HCl; 0.05 M; various pH; 23° C.) and washed three additional times by centrifugation as described in the preceeding paragraph. For assay, the washed tissue was resuspended in buffer at a concentration of 10 mg/mL. All procedures were performed using triplicate incubations in a final volume of 2 mL which consisted of the tissue suspension (1 mL), ligand, the compound(s) of interest and 1 mL of buffer. In every instance, Glu (10^-3 M) was used to determine nonspecific binding. Assays were terminated by centrifugation (45,000 g; 10 min; 4° C.), the pellet was washed rapidly and superficially with 2×2.5 mL of ice-cold buffer and dissolved in 1 mL of Protosol® (New England Nuclear, Boston, Mass.). Following the addition of 6 mL of Econfluor® (New England Nuclear, Boston, Mass.) radioactivity was determined using conventional liquid scintillation spectrophotometry.
Specific binding of [^3 H]KA (S.A.=60 Ci/mmol, New England Nuclear, Boston, Mass.) was examined according to the method of London and Coyl [(Mol. Pharmacol., 15, 492-505 (1979)] using Tris HCl buffer (pH 7.4). Incubations were conducted for 90 min at 2° C. using a final ligand concentration of 2 nM.
(§4) All assays were performed on three separate occassions. Appropriate reference compounds were evaluated in each assay and experiment using parallel incubations. All compounds were examined at a single concentration (50 uM) and activity was expressed as the percent inhibition of specific binding of each ligand.
(§5) Method(s) have been described in the text. Values shown are the means ±S.E.M. of three separate determinations performed using triplicate incubations and are expressed as the percent inhibition of specifically bound ligand. All drugs were tested at a single concentration of 50 μM.

[2] = tested on: NMDA receptors (rat forebrain membranes); assay: In vitro receptor binding: inhibition of specific [3H]CPP binding; details: for Inhibition of [3H]CPP binding / interaction with NMDA-type receptors, in words: 50 μM; for Percent inhibition of specific ligand binding, [3H]CPP: 50 μM compound, 8 nM ligand, pH 7.4, 30 min, 23° C., mean ± S.E.M. of three determinations
Method: as §1, §2, §3
Specific binding of [^ 3H]CPP (S.A.=27 Ci/mmol, New England Nuclear, Boston, Mass.) was examined using a modification of the method of Murphy et al., [(J. Pharmacol. Exp. therap., (in press)] using Tris HCl buffer (pH 7.4). Incubations were conducted for 30 min at 23° C. using a final ligand concentration of 8 nM.
as §4, §5

[3] = tested on: QUIS receptors (rat forebrain membranes); assay: In vitro receptor binding: inhibition of specific [3H]AMPA binding; details: for Inhibition of [3H]AMPA binding, in words: 50 μM; for Percent inhibition of specific ligand binding, [3H]AMPA: 50 μM compound, 4 nM ligand, pH 6.9, 100 mM KSCN, 60 min, 4° C., mean ± S.E.M. of three determinations
Method: as §1, §2, §3
Specific [^3 H]AMPA (S.A.=27.5 Ci/mmol, New England Nuclear, Boston, Mass.) binding was examined according to the method of Murphy et al., [(Soc. Neurosci. Abs., 11, 109, (1985)] using Tris HCl buffer (pH 6.9) supplemented with 100 mM KSCN. Incubations were conducted for 60 min at 4° C. using a final ligand concentration of 4 nM.
as §4, §5

[4] = tested on: maximal electroshock (MES)-induced seizures; assay: Protection against maximal electroshock (MES)-induced seizures; format: in vivo, male CF-1 mice; details: for ED50: Mus musculus, 0.5 h, ip, 30 min prior; for ED50 / ED50, maximal electroshock, icv: 50 mA, 0.2 s; for ED50, maximal electroshock, icv: 15 min prior
Method: The anticonvulsant properties of example IV and of the reference compound DL(±)AP7 against seizures induced by maximal electroshock (MES) were evaluated using mice.
For testing, electrodes were clipped to the ears of male CF-1 mice (20-25 g; Charles Rivers) and a current of 50 mA was delivered for 0.2 seconds to produce seizures. Drugs were dissolved in saline (0.9%; w/v) and administered fifteen minutes (ICV) or thirty minutes (IP) prior to testing. Injection protocols and group size were identicl to those described in example VI. […] Seizures were scored as being present or absent. Data was calculated as described in example VI.
(§6) Method(s) have been described in the text. Where ED50 's are shown,
(§7) *Where ninetyfive percent confidence limits are not shown, the values

[5] = tested on: pentylenetetrazol (PTZ)-induced seizures; assay: Protection against pentylenetetrazol (PTZ)-induced seizures; format: in vivo, male CF-1 mice
Method: The anticonvulsant properties of example IV and of the reference compound DL(±)AP7 against seizures induced by subcutaneous (s.c.) injection of pentylenetetrazol (PTZ) were evaluated using mice.
For testing, PTZ was dissolved in saline (0.9%; w/v) and administered to male CF-1 mice (Charles Rivers: 20-25 g) at a dose of 90 mg/kg (s.c.) fifteen minutes (ICV) or thirty minutes (IP) after the administration of the test compounds. Example IV and the reference compound were dissolved in sline and administered in a final volume of 5 μL (ICV) or 200 μL (IP). […] Presence of seizures was defined as one or more episodes of clonic activity having a duration of five seconds or greater. Following preliminary dose-ranging studies, dose-response curves were generated using at least five different doses of each compound with eight animals at each dose. The dose of drug required to protect fifty percent (ED50) of the test animals from PTZ-induced seizures was calculated using log-logit analysis. Ninety-five percent confidence intervals (CL95) were calculated using the method of Litchfield and Wilcoxon [J. Pharmacol. Exp. Therap., 96, 99-113 (1949)].
as §6, §7

[6] = tested on: cultured rat hippocampal neurones; details: cited from earlier work
[7] = ">" = maximum dose tested, no animals protected, read-out: ED50, maximal electroshock, ip (mg/kg)
[8] = ">" = maximum dose tested, no animals protected, read-out: ED50, maximal electroshock, ip (mmol/kg)
[9] = ">" = maximum dose tested, no animals protected
[10] = icv, 15 min before PTZ 90 mg/kg s.c.
[11] = Mus musculus, ip, 30 min before PTZ 90 mg/kg s.c.; ">" = maximum dose tested, no animals protected

Compound | Percent inhibition of specific ligand binding, [3H]KA [1] [%] | Inhibition of [3H]CPP binding / interaction with NMDA-type receptors, in words [2] | Percent inhibition of specific ligand binding, [3H]CPP [2] [%] | Inhibition of [3H]AMPA binding, in words [3] | Percent inhibition of specific ligand binding, [3H]AMPA [3] [%] | ED50, maximal electroshock, icv [4, 9] | ED50, pentylenetetrazol, icv (nmoles) [5, 10] | ED50, pentylenetetrazol, icv (ug) [5, 10] | also measured
Cc1onc(O)c1CC(N)C(=O)O (racemic) [AMPA, RS-α-amino-3-hydroxy-5-methyl-4-isoxazole propionic acid] | 64 ± 4 | without appreciable activity | 7 ± 4 | most potent inhibitors of binding | 100 ± 0 | – | – | – | –
NC(CCCCCP(=O)(O)O)C(=O)O (racemic) [DL(±)AP7] | – | – | – | – | – | 6.8 µg and 7.3 µg | 6.8 nmol | 1.37 µg | Attenuation of MES-induced seizure activity, in words ([4]; ICV): dose-dependent protection; ED50 [4, 7]: 127 to 170 mg/kg; ED50 [4, 8]: 0.56 to 0.76 mmol/kg; ED50, maximal electroshock, icv [4]: 29 nmol and 34 nmol; ED50 ([5]; Mus musculus; ip, 30 min before PTZ 90 mg/kg s.c.): 780 to 880 µmol/kg; ED50 ([5]; Mus musculus; ip, 30 min before PTZ 90 mg/kg s.c.; ">" = maximum dose tested, no animals protected): 176 to 199 mg/kg
NC(CCC1CCCCC1CP(=O)(O)O)C(=O)O (stereo not shown) [4-(2-phosphonomethyl)cyclohexyl-2-aminobutyric acid] | – | high affinity and selectivity | – | – | – | – | – | – | Anticonvulsant activity in PTZ seizure model, in words ([5]; mice): provide protection in pentylenetetrazol (PTZ) induced seizures
N[C@H](CCCP(=O)(O)O)C(=O)O [D(-)AP5, D(-)-2-amino-5-phosphonopentanoic acid] | 22 ± 1 | – | 95 ± 4 | – | 3 ± 2 | – | – | – | –
N[C@H](CCCCCP(=O)(O)O)C(=O)O [D(-)AP7, D(-)-2-amino-7-phosphonoheptanoic acid] | 17 ± 2 | – | 100 ± 0 | – | 7 ± 5 | – | – | – | –
NC(CC1CCCCC1CCP(=O)(O)O)C(=O)O (stereo not shown) [Example IV, 2-amino-4.5-(1,2-cyclohexyl)-7-phosphonoheptanoic acid] | 9 ± 4 | interacts, albeit with moderate affinity, in a highly specific manner with NMDA-type receptors | 33 ± 9 | without appreciable activity | 1 ± 1 | 90 µg | 0.14 nmol and 0.19 nmol | 0.04 µg and 0.06 µg | Attenuation of MES-induced seizure activity, in words ([4]; ICV): moderately potent; also recorded: relative lack of potency; fold less potent as an anticonvulsant in MES compared to its activity in the PTZ seizure model ([4]; ICV, MES vs PTZ): 360 fold; fold less potent than DL(±)AP7 as an anticonvulsant in the MES test ([4]; ICV, vs DL(±)AP7): approximately 11 fold; Prevention of MES-induced seizures on systemic administration ([4]; IP, up to 350 mg/kg, n=6): failed to prevent MES-induced seizures in any animal; ED50 [4, 7]: > 350 mg/kg; ED50 [4, 8]: > 1.2 mmol/kg; ED50, maximal electroshock, icv [4]: 314 nmol; Inhibition of [3H]KA binding, in words ([1]; 50 μM): least active; fold more potent than DL(±)AP7 to prevent PTZ-induced seizures, ICV ([5]; ICV, vs DL(±)AP7): 30-40 fold; fold more potent than DL(±)AP7 to prevent PTZ-induced seizures, IP ([5]; IP, vs DL(±)AP7): approximately 2 fold; ED50 ([5]; Mus musculus, ip, 30 min before PTZ 90 mg/kg s.c.): 310 µmol/kg; ED50 [5, 11]: 90 mg/kg; ED50, pentylenetetrazol, ip ([5]; ip, 30 min before PTZ 90 mg/kg s.c.): 0.47 mmol/kg; ED50, pentylenetetrazol, ip ([5]; ip, 30 min before PTZ 90 mg/kg s.c.; ">" = maximum dose tested, no animals protected): 134 mg/kg; Anticonvulsant activity in PTZ seizure model, in words ([5]; mice): potent, novel and systemically active anticonvulsant agent; Anticonvulsant activity in PTZ seizure model, in words ([5]; mice; listed as 3-(2-phosphonoethyl)cyclohexyl-2-aminopropionic acid): provide protection in pentylenetetrazol (PTZ) induced seizures; Inhibition of [3H]CPP binding / interaction with NMDA-type receptors, in words ([2]; listed as 3-(2-phosphonoethyl)cyclohexyl-2-aminopropionic acid): high affinity and selectivity
NC(Cc1ccccc1CCP(=O)(O)O)C(=O)O (stereo not shown) [III, 2-Amino-4,5-benzo-7-phosphonoheptanoic acid] | – | – | – | – | – | > 100 µg | 44 nmol | 3.2 µg | ED50 [5, 11]: > 350 mg/kg
C=C(C)[C@H]1CN[C@H](C(=O)O)[C@H]1CC(=O)O [KA, kainic acid] | 100 ± 0 | without appreciable activity | 3 ± 2 | moderate activity | 56 ± 5 | – | – | – | –
δ-D-glutamyl glycine | – | – | – | – | – | – | – | – | Effect on toxicity of exogenously applied Glu and Asp ([6]; exogenously applied Glu and Asp): blocking the toxicity of exogenously applied Glu and Asp; Protection of neurones from degeneration ([6]; oxygen depletion): protect cultured rat hippocampal neurones from degeneration
